Measured values reported in patent publication US9888679B2, “Protection of progenitor cells and regulation of their differentiation” (Proteobioactives Pty Ltd, priority 2007, dated 2018).
Where “and” joins values, the source holds several entries; their conditions need not be identical. Equal entries are not always repeated. Entries after “also recorded” stand apart in the source; their conditions may differ.

Legend:
[1] = tested on: Murine Progenitor Cell (C3H10T1/2); test: Proteoglycan biosynthesis (35S-GAG) and DNA content in monolayer cultures; format: cell-based; conditions: for biosynthesis of proteoglycans: all concentrations of PPS
Protocol: FIG. 9. Concentration dependent effects of Pentosan Polysulfate (PPS) on Murine Progenitor Cell (progenitor cells C3H10T1/2) biosynthesis of Proteoglycans (PGs) and DNA content when grown in monolayer cultures. Data shown=Means±SD.
Murine Progenitor cells (cell lines C3H10T1/2 or ATDC5) purchased from RIKEN Cell Bank (Tsukuba, Japan) or human immunoselected Stro-1+ Progenitor cells (Mesoblast Ltd, Melbourne, Australia) were seeded into 50 mL plastic culture flasks containing 1:1 high glucose DMEM/Ham's F-12 medium (Invitrogen) supplemented with 10% FBS (Sigma) and incubated at 37° C., in 5% CO2. After confluence was reached, progenitor cells were released by trypsinization and harvested by centrifugation. Cells were inoculated to 96-well or 24-well plates at a density of 3×10^4 cells or 2×10^5 cells per well. After 48-hour incubation at 37° C., 5% CO2 confluent monolayers were normally established. The medium was then changed to defined medium, which contained different concentrations of PPS with and without rhNC4 and 5 μCi/ml of ^35S—H2SO4 (PerkinElmer, USA). The experiments were generally terminated after 48 hours incubation when proteoglycan biosynthesis was determined by measuring the incorporation of ^35SO4 into the glycosaminoglycans (^35S-GAGs) as described below.
(A) 96-well plates: Cultures were subjected to proteolytic digestion with papain to release glycosaminoglycans. The papain stock solution used contained 2.5 mg/ml papain (Sigma), 7.9 mg/ml cysteine-HCl (Sigma) in papain digest buffer (0.1M NaAc, 5 mM EDTA, pH6.0). 50 μl of papain stock solution was added to each well. The plate was sealed using plastic sheeting and incubated at 65° C. for 2 hours. […]
The ^35SO4-GAGs in the remained solution (200 ul) were precipitated with Cetyl Pyridinium Chloride (CPC) (Sigma). […] Following addition of 3 ml scintillation liquid and vortexing the radioactivity of the ^35S-GAG-CPC complexes were in the samples were measured by scintillation counting (PerkinElmer, USA) and recorded as DPM/sample. The data then was then normalised for DNA and expressed as ^35-S-GAGs/μg DNA.
(B) 24-well plates: After 48 hours incubation in the defined media, the media per well (containing soluble ^35S-labelled proteoglycans) was separated from the cells and transferred to a 2.0 ml microfuge tube. […] The 35S-GAG-CPC complexes collected through the fibre filter and the radioactivity of 35S-GAG was measured using the liquid scintillation analyser as describe above. The cells were extracted with the RNA reagent and aliquots used to determine gene expression and/or the DNA content was measured by the fluorometric assay and the results expressed as ^35-S-GAGs/μg DNA. […]

Normal Human MSCs = test: Freeze/thaw viability of MSCs cryopreserved with PPS, trypan blue cell counts; format: cell-based
Protocol: FIG. 1. The Effects of Pentosan Polysulfate (PPS) on Normal Human MSCs Freeze/Thaw Viabilities. MSCs were rapidly thawed in a 37° C. water bath and washed twice with HHF (HBSS containing 5% (v/v) Foetal Calf Serum). The cells were subsequently seeded into multiple T-75 flasks at 8,000 cells/cm^2. The cells were grown until 70-80% confluent, trypsinised and cryopreserved at cell concentrations of 50×10^6/ml in Profreeze®/7.5% DMSO supplemented with PPS at the indicated concentrations. Ampoules were retrieved from liquid nitrogen storage and rapidly thawed, gently mixed and 10 ul samples removed at time=0, 30, 60, 90 and 120 minutes. To each cell sample, 290 ul of trypan blue was added and cell counts/viability testing performed.
Cells were harvested and resuspended in cold serum free culture medium at 5.0 to 20.0×10^6 cells/ml. An equal volume of chilled complete Profreeze®-CDM medium was added to the chilled cell suspension containing 0, 10, 20, 50 and 100 micrograms/mL of PPS. The resulting final DMSO concentration was 7.5%, PPS concentration was 0, 5, 10, 25 and 50 micrograms/mL and the final cell concentration was approximately 2.5 to 10×10^6 cells/ml. The cell mixture was aliquoted into cryopreservation ampoules (Nunc, Intermed, Denmark) and cryopreserved in a C156 Freezing Container (Thermo Scientific, Melbourne, 21 Australia) at −80° C. for a −1° C./minute controlled cooling rate. The ampoules were then transferred to liquid nitrogen storage (−196° C.).
Cyropreserved cells were rapidly thawed for a minute in a 37° C. water bath and transferred to a 10 mL polypropylene tube. Approximately 3 mL of appropriate media was added dropwise to the cells with constant mixing, and made up to a final volume of 10 mL. Cells were pelleted by centrifugation at 400×g, 4° C. for 5 minutes and the supernatant aspirated. To ensure removal of residual DMSO, cells were washed in medium and centrifuged as above. Cells were resuspended in final volume of 10 mL and seeded in a 75 cm^2 flask prior to incubation in a humidified incubator at 37° C. in the presence of 5% CO2.
Aliquots of single-cell suspensions obtained after thawing progenitor cells from the PPS containing cryopreserved vials were diluted in an equal volume of 0.4% (w/v) trypan blue in phosphate buffered saline (PBS). The cell counts were determined using a haemocytometer (Neubauer Improved, Assistant, Germany) and a light microscope (Olympus CKX41, Japan).

Substance: pentosan polysulfate [PPS]
- PPS concentration best with regard to DNA content ([1]; FIG. 9): 5 μl/ml and 10 μl/ml
- PPS concentration best with regards to PG synthesis ([1]; FIG. 9): 10 μl/ml
- biosynthesis of proteoglycans ([1]; FIG. 9): increased
- biosynthesis of proteoglycans ([1]; FIG. 9, listed as polysulfated polysaccharides): chondrogenic promoting effect
- cell viability after cryopreservation and thawing (Normal Human MSCs; 5 μg/ml PPS): beneficial effect on viability at 60 minutes
- cell viability after cryopreservation and thawing (Normal Human MSCs; 10 μg/ml PPS): beneficial effect at time point 0 and then at 60 and 90 minutes
- cell viability after cryopreservation and thawing (Normal Human MSCs; 25 μg/ml PPS, all time points instead of 30 minutes): either enhanced the viability or did not adversely affect the viability
- cell viability after cryopreservation and thawing (Normal Human MSCs; 50 μg/ml PPS, with the exception of 30 minutes): enhanced the viability of the progenitor cells at all time points
- cell viability after cryopreservation and thawing (Normal Human MSCs; Profreeze/7.5% DMSO with PPS 5-50 μg/ml, 0-120 min after thawing, FIG. 1): did not adversely affect cell viability; also recorded: did not have an adverse effect on the cryopreservation; also recorded: did not have an adverse effect and may enhance the cryopreservation of progenitor cells
- cell viability after cryopreservation and thawing (Normal Human MSCs; Profreeze/7.5% DMSO with PPS 5-50 μg/ml, 0-120 min after thawing, FIG. 1, listed as polysulfated polysaccharides): no detrimental effect on their viability
